Laboratory results: the METLIN SMRT retention time set (Domingo-Almenara et al. 2019)

Assay: gradient 5% acetonitrile 3 min, to 50% in 2 min, to 85% in 15 min, held 3 min, 100 µL/min
Details: column: Zorbax Extend-C18 2.1 x 50 mm; eluents: water / acetonitrile, 0.1% formic acid
Summary of the method: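 Standards, all pure, were combined into mixtures of ~100 molecules and run at 100 μL/min on a Zorbax Extend-C18 column (2.1 × 50 mm, 1.8 μm) with water and acetonitrile, each containing 0.1% formic acid. A coupled quadrupole time-of-flight mass spectrometer operated in positive and negative ionization mode. Retention time values come from computationally picked adduct peaks, each inspected manually.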

Cc1cccc(Cn2c(=O)n(CCNC(=O)c3cccn3C)c3ncccc32)c1
RP-LC retention time: 826 s

COc1ccc(NS(=O)(=O)c2cc3c(s2)CCN(C(=O)C2CC2)C3)cc1OC
RP-LC retention time: 734 s

O=C(NCc1ccc(Cl)cc1)c1cn2c(n1)COCC2
RP-LC retention time: 678 s

O=C(CNC(=O)C(c1ccccc1)c1ccccc1)NCC(=O)N1CCCc2ccccc21
RP-LC retention time: 875 s

CCN(CC)S(=O)(=O)c1ccc2c(c1)CC(C(=O)NCCN1CCCC1)N2C(C)=O (stereo unspecified)
RP-LC retention time: 613 s

CCN(CC)CCc1nc(-c2ccccc2)no1
RP-LC retention time: 674 s

COc1ccc2c(c1)C1(CCN(S(=O)(=O)c3ccccc3)C1)C(=O)N2 (stereo unspecified)
RP-LC retention time: 771 s

Cc1nnc(NC(=O)CSc2nnc(NC(=O)Nc3cccs3)s2)s1
RP-LC retention time: 634 s

O=C(Nc1ccc2c(c1)CN(C(=O)Nc1ccc3c(c1)OCCO3)CCO2)C1CC1
RP-LC retention time: 717 s

CC1(C(=O)NCc2ccccc2)CCCN(C(=O)Nc2ccc(F)cc2)C1 (stereo unspecified)
RP-LC retention time: 588 s

Cc1cc(CN2CCC(CNC(=O)C(=O)NCCC3=CCCCC3)CC2)c(C)o1
RP-LC retention time: 607 s

O=C(NCCc1csc(-c2ccccc2)n1)C1CCN(S(=O)(=O)c2cccc(F)c2)CC1
RP-LC retention time: 922 s

O=C(c1ccc(OC(F)(F)F)cc1)N1C[C@@H]2C[C@H]1C[C@@H]2NS(=O)(=O)c1ccccc1
RP-LC retention time: 884 s

C=CCNC(=O)C(=O)Nc1ccc2c(c1)N(C(=O)C(C)C)CCC2
RP-LC retention time: 746 s

O=C(Nc1cnn(-c2ncc(N3CCCCC3)cn2)c1)c1ccncc1
RP-LC retention time: 662 s

O=S(=O)(Nc1ccc(Oc2nc3ccccc3n3cnnc23)cc1)c1cccc2nsnc12
RP-LC retention time: 755 s

Cc1cccc(N2CCN(C(=O)C3CCCN(c4cnc5nccnc5c4)C3)CC2)c1 (stereo unspecified)
RP-LC retention time: 775 s

CCOc1nc2ccccc2nc1N1CCCC(C(=O)Nc2ccc(F)cc2F)C1 (stereo unspecified)
RP-LC retention time: 1220 s

Cc1cccc(-c2ncccc2CNS(=O)(=O)c2cccs2)c1
RP-LC retention time: 677 s

COC(=O)c1ccc(NC(=O)C(=O)NCC(O)c2sccc2C)cc1 (stereo unspecified)
RP-LC retention time: 707 s

O=C(NC1CC1)C1CCCN(C(=O)c2cc(-c3ccncc3)n[nH]2)C1 (stereo unspecified)
RP-LC retention time: 538 s

CCn1cc(-c2nc(C(=O)N3CCN(c4ccccc4F)CC3)cs2)c2cccnc21
RP-LC retention time: 1040 s

CN1C(=O)COc2cc(-c3noc(C(=O)N4CCCCC4)n3)ccc21
RP-LC retention time: 841 s

CC(C)c1noc(COC2CCN(C(=O)Cn3ccnc3)CC2)n1
RP-LC retention time: 592 s

CCCc1cc(N2CCN(C(=O)c3sccc3C)CC2)nc2nnc(C)n12
RP-LC retention time: 566 s

Cc1[nH]ncc1CNC(=O)C1CCN(C(=O)c2ncn3c2COC(c2ccc(F)cc2)C3)CC1 (stereo unspecified)
RP-LC retention time: 626 s

O=C(Nc1cccc(OCc2nnc(-c3ccccc3)o2)c1)C1COc2ccccc2O1 (stereo unspecified)
RP-LC retention time: 1010 s

CCS(=O)(=O)N1CC(n2cc(C(=O)NCC3CC3)nn2)C1
RP-LC retention time: 664 s

COc1ccc(C2=NCC(=O)N(CC(=O)Nc3cc(F)ccc3F)c3sccc32)cc1
RP-LC retention time: 702 s

CCN(CCCNC(=O)C1CCN(S(=O)(=O)N2CCOCC2)CC1)c1cccc(C)c1
RP-LC retention time: 623 s

O=C(Cn1cnc2nc(N3CCCC(C(=O)NC4CC4)C3)sc2c1=O)Nc1ccc2c(c1)CCC2 (stereo unspecified)
RP-LC retention time: 744 s

Cc1cc2nc(Nc3nc(SCc4ccc(Cl)cc4)cc(=O)[nH]3)nc(C)c2cc1C
RP-LC retention time: 1110 s

O=C(NCCC1CCN(C(=O)Nc2cc(F)ccc2F)CC1)c1cccs1
RP-LC retention time: 818 s

N#Cc1ccccc1CN1CCC(N2CC(OCC3CC3)C23CCCCC3)CC1 (stereo unspecified)
RP-LC retention time: 607 s

CCn1cc(CC(=O)NC2CCCCCC2)c2cccnc21
RP-LC retention time: 768 s

COCc1nc(NCc2ccc3c(c2)OCO3)ncc1C(=O)O
RP-LC retention time: 673 s

CCCOc1nc2ccccc2nc1N1CCCC(C(=O)NCC2CCCO2)C1 (stereo unspecified)
RP-LC retention time: 1010 s

Cc1ccccc1Cn1c(N2CCC(C(=O)N3CCN(c4ccccn4)CC3)CC2)nc2ccccc21
RP-LC retention time: 587 s

O=C(CCn1cnc2cc(-c3noc(C4CC(=O)N(c5ccccc5)C4)n3)ccc21)N1CCCC1 (stereo unspecified)
RP-LC retention time: 659 s

CN1C(=O)c2cc(C(=O)NC3CCCCC3)nn2CC1(C)C(=O)NCc1ccccc1 (stereo unspecified)
RP-LC retention time: 758 s

CCOC(=O)CNC(=O)N1CCN(Cc2nc3cccnc3n2-c2cccc(F)c2)CC1
RP-LC retention time: 612 s

O=C(NCc1ccc2c(c1)OCO2)C1CCCN(C(=O)c2cc(-c3cccnc3)n[nH]2)C1 (stereo unspecified)
RP-LC retention time: 584 s

COc1ccc(C)cc1N1C(=O)CC(N2CCC(C(N)=O)CC2)C1=O (stereo unspecified)
RP-LC retention time: 590 s

Cc1ccnc(Nc2nc(-c3ccc(Cl)cc3)cs2)c1
RP-LC retention time: 947 s

CCn1c(C)c(-c2nc(C3CC3)no2)c(S(=O)(=O)NCC(C)C)c1C
RP-LC retention time: 930 s

Cc1nc([N+](=O)[O-])c(Sc2nc3ccccc3[nH]2)n1Cc1ccccc1
RP-LC retention time: 702 s

CN(Cc1ccccc1)C(=O)c1cccc(NC(=O)[C@H]2[C@@H]3C[C@@H]4[C@H]2C(=O)O[C@@H]4C3)c1
RP-LC retention time: 766 s

CCc1noc(-c2ccc(-n3cnc(C(=O)N4CCc5ccccc5C4)c3)nc2)n1
RP-LC retention time: 924 s

Cc1ccccc1Nc1c(-c2ccc(Br)cc2)nc2cnccn12
RP-LC retention time: 1060 s

Cc1noc(C)c1-c1ccc(S(=O)(=O)N2CCc3ccccc32)cc1
RP-LC retention time: 1040 s

COc1ccc(OC)c(NC(=O)c2noc3c2CCCC3)c1
RP-LC retention time: 1160 s

CNC(=O)Cc1ccc(NS(=O)(=O)Cc2ccc(Cl)cc2)cc1
RP-LC retention time: 703 s

Cc1ccc(-c2nc(-c3ccc4c(c3)nnn4CCC(=O)N3CCCC3)no2)c(C)c1
RP-LC retention time: 1090 s

COc1cc(C(O)CCBr)c(OC)cc1C (stereo unspecified)
RP-LC retention time: 1020 s

O=C(Nc1ccc(Br)cc1F)C1CCCN(c2cc(-n3cccn3)ncn2)C1 (stereo unspecified)
RP-LC retention time: 967 s

COc1cccc(CC(=O)N2CCC3(CC2)NC(=O)c2ccc(F)cc2N3C)c1
RP-LC retention time: 756 s

CC(=O)Nc1ccc(CC(=O)NC(C(=O)N2CCCc3ccccc32)c2ccccc2)cc1 (stereo unspecified)
RP-LC retention time: 803 s

O=C(Nc1cc(-c2ccccc2)[nH]n1)c1ccc(Cl)cc1
RP-LC retention time: 925 s

CCn1c(=O)sc2cc(S(=O)(=O)N3CCC(C(=O)NC4CCCC4)CC3)ccc21
RP-LC retention time: 845 s

CCCCNc1nc(NCC)nc(-n2cnc(SC)n2)n1
RP-LC retention time: 880 s

O=C(O)CCC(=O)Nc1ccccc1Cl
RP-LC retention time: 616 s

O=C(NCC1CCCO1)C1CCCN(c2ncnc3c2oc2ccccc23)C1 (stereo unspecified)
RP-LC retention time: 656 s

O=C(c1ccc(-c2cccs2)nc1)N1CCN(c2ccccc2)CC1
RP-LC retention time: 935 s

O=C(NCc1cccs1)C1CCN(C(=O)c2cc(-c3ccncc3)n[nH]2)CC1
RP-LC retention time: 572 s

O=[N+]([O-])c1ccc(-c2csc(N3CCOCC3)n2)cc1
RP-LC retention time: 1000 s

CCc1noc(-c2nnn3c2COC(c2ccc(F)cc2)C3)n1 (stereo unspecified)
RP-LC retention time: 960 s
